From US10259846B2, “Bouvardin derivatives and therapeutic uses thereof” (The Regents of the University of Colorado, a body corporate, priority 2012, dated 2019)
Like-named read-outs stand apart in the source and are kept apart here.

Legend:
mice = conditions: cited from earlier work
U87MG glioma cells = test: Cell growth assay (CellTiter-Glo), U87MG glioma cells; assay type: cell-based; conditions: single agent; 10 μM and 100 μM; 6 days (FIG. 10)
Procedure: (§1) Two glioma cell lines were used (U87MG and T98G). The growth inhibitory effects of chemical compounds were evaluated using CellTiter-Glo® Luminescent Cell Viability Assay (Promega G7570). The CellTiter-Glo® Reagent lyses cells and generates a luminescent signal proportional to the amount of ATP present. In this assay, 4,000 viable cells were plated in 100 μL of growth medium in 96-well plates (Corning). Following an overnight incubation, drugs were added in varying concentrations and incubated for 6 days. 100 μL of CellTiter-Glo® Reagent was added to each well. Plates were incubated with mixing at room temperature for 30 minutes. Luminescence of each well was measured using an automated plate reader.

rabbit reticulocytes = test: In vitro translation assay (luciferase mRNA); assay type: biochemical; conditions: luciferase activity; 15 minutes at 37° C.
Procedure: In vitro translation assays were performed in rabbit reticulocytes (Promega) according to manufacturer's instruction, in the presence or absence of drug at final concentrations shown. Luciferase mRNA provided in the kit was used at a final concentration of 1 μg/μl. The reaction samples were incubated for 15 minutes at 37° C. and quenched by dilution with water. Luciferase activity was measured using a plate reader Multi-Mode Microplate Reader (Synergy 2 by BioTek) immediately after luciferase substrate addition.

T98G glioma cells = test: Cell growth assay (CellTiter-Glo), T98G glioma cells; assay type: cell-based; conditions: for inhibitory effects on cell growth: single agent, 10 μM and 100 μM, 6 days (FIG. 11)
Procedure: as §1

[1] = tested on: WM35 (lower grade, radial phase) melanoma cell line; test: Cell growth assay IC50, WM35 melanoma cell line; assay type: cell-based, human
Procedure: as §1, with “Seven cell lines, lung cancer cell line H157, HNC” for “Two glioma”, “lines Det562 and FaDu, and melanoma cell lines WM35, A375, 1205Lu and HS294T” for “lines”, “studied.” for “used (U87MG and T98G).”, “˜4,000” for “4,000”, “reader. Survival was plotted against drug concentration to compute IC50.” for “reader.”
(§2) The ability of bouvardin and meta Br-N-29-H RA-VII to inhibit the growth of Melanoma cells in culture was studied. […] Both compounds show greater efficacy in higher grade, metastatic melanoma cell lines than in a lower grade melanoma line.

[2] = tested on: human primary fibroblasts; test: Bouvardin on primary versus oncogene-transformed human fibroblasts; assay type: cell-based; conditions: fibroblasts transformed with more and more oncogenes (FIG. 16)
[3] = tested on: A375 (higher grade) melanoma cell line; test: Cell growth assay IC50, A375 melanoma cell line; assay type: cell-based, human
Procedure: as §1, with “Seven cell lines, lung cancer cell line H157, HNC” for “Two glioma”, “lines Det562 and FaDu, and melanoma cell lines WM35, A375, 1205Lu and HS294T” for “lines”, “studied.” for “used (U87MG and T98G).”, “˜4,000” for “4,000”, “reader. Survival was plotted against drug concentration to compute IC50.” for “reader.”
as §2

[4] = tested on: human primary fibroblasts; conditions: published report (Dolma et al., 2003); cited from earlier work
HS294T melanoma cells [5] = test: Clonogenic assay (sulfhorhodamine B), HS294T; assay type: cell-based, human
Procedure: HS294T melanoma cells were plated at a low concentration to allow for the formation of single colonies. These cells were then treated with meta Br-N-29-H RA-VII alone, PLX4032 alone and a combination of the two and then processed using the quantitative sulfhorhodamine B assay.

HS294T melanoma cells [6] = test: Combination with ionizing radiation, combination index, HS294T; assay type: cell-based, human; conditions: range of drug doses and radiation
Excerpt: CI values are shown for a range of drug doses and radiation. CI<1 indicates synergy.

Melanoma cells = test: Growth inhibition of Melanoma cells in culture, alone and combined; assay type: cell-based, human
Excerpt: as §2
Synergy is seen in cell lines with a wide range of sensitivity to PLX4032, i.e. both PLX4032-sensitive and PLX4032-resistant lines.

[7] = Combination Index from cell growth assays with targeted agents (FIG. 22); assay type: cell-based; conditions: over a range of FA (fraction affected)
Procedure: The combinations of meta Br-N-29-H RA-VII and three commercially available targeted agents (PLX4032 BRAF inhibitor, TAK-333 MEK inhibitor and PF-0491502 P13K/TOR dual inhibitor) were tested at various drug doses. Combination Index values were computed from cell growth assays as previously described (Gladstone et al., Disease Models and Mechanisms, 2012, PMID: 22344740). The tables show average CI values for the combination of meta Br-N-29-H RA-VII and each targeted agent. FA=‘fraction affected’ or fraction of cells killed, reflecting the drug doses used. The CI values that indicate three modes on drug-drug interaction are indicated in the legend and differentially shaded in the table. CI˜1 denote additive action (un-shaded). CI>1 denote antagonistic action (darker shade).

[8] = tested on: Det562 Head and Neck cancer cells; test: Exposure-time cell viability assay, Det562; assay type: cell-based, human; conditions: IC70 concentration; viability read after 5 days
Procedure: (§3) The cell growth assays used to measure IC50 and synergy involve leaving the drug on the cells for 5 days. However, this length of time may or may not be necessary to see efficacy. To address this, two Bouvardin derivatives (meta Br-N-29-H RA-VII and mera Cl-N-29-H RA-VII) were exposed to different melanoma and head and neck cells for various amounts of time. Cells were plated at 4,000 cells per well in 96 well plates and allowed to adhere for 24 hrs before adding meta Br-N-29-H RA-VII or meta Cl-N-29-H RA-VII at an IC70 concentration for each cell line. The drug was removed after various times (12 hr, 1 day, 2 days, 3 days, 4 days) by replacement with fresh media. After 5 days, cell viability was determined using CellTiter-Glo® Luminescent Cell Viability Assay (Promega G7570), which measures ATP levels. Bouvardin or BVD at 12 hr exposure was used as a control. […] While the maximal effect of meta Br-N-29-H RA-VII was not reached at the same time for all of the lines, the drug is affecting each cell line to some degree by 24 hrs.

[9] = tested on: FaDu Head and Neck cancer cells; test: Exposure-time cell viability assay, FaDu; assay type: cell-based, human; conditions: IC70 concentration; viability read after 5 days
Procedure: as §3

A375 melanoma cells = test: Exposure-time cell viability assay, A375; assay type: cell-based, human; conditions: IC70 concentration; viability read after 5 days
Procedure: as §3

HS294T melanoma cells [10] = test: Exposure-time cell viability assay, HS294T; assay type: cell-based, human; conditions: IC70 concentration; viability read after 5 days
Procedure: as §3

[11] = tested on: HS294T metastatic melanoma cells; test: Combination with PLX4032, combination index, HS294T; assay type: cell-based, human; conditions: combination with PLX4032, wide range of drug concentrations
Excerpt: The dotted line indicates fraction survival expected if meta Br-N-29-H RA-VII and PLX4032 are act in an additive manner. The observed effect of the combination is […], indicating synergy. This represents a subset of a larger data set that includes the result of a wide range of drug doses. The complete dataset is in FIGS. 16 and 17.
CI of less than 1 indicates synergy, which is seen for a wide range of drug concentrations. […] This illustrates that at doses that show synergy, significant fractions of cells are killed or inhibited from growing.

1205Lu melanoma cells = test: Exposure-time cell viability assay, 1205Lu; assay type: cell-based, human; conditions: IC70 concentration; viability read after 5 days
Procedure: as §3

[12] = combination of meta Br-N-29-H RA-VII and PLX4032

In the case of `COc1cccc2c1C(=O)c1c(O)c3c(c(O)c1C2=O)C[C@@](O)(C(=O)CO)C[C@@H]3O[C@H]1C[C@H](N)[C@H](O)[C@H](C)O1` [doxorubicin], the LD50 (mice) is listed as 12.5 mg/kg.

For `COc1ccc(C[C@H](NC(=O)[C@H](Cc2ccc(O)cc2)N(C)C(=O)OC(C)(C)C)C(=O)OCc2ccccc2)cc1B(O)O` [Compound 1-9], the “inhibitory effects on cell growth” value (U87MG glioma cells) was “potent inhibitory effects”, the “inhibition of protein translation in in vitro translation assay” value (shortened to “inhibition of protein translation”) (rabbit reticulocytes) was “do not appear to inhibit protein translation” and the “inhibitory effects on cell growth” value (T98G glioma cells) was “potent inhibitory effects”.

For `COc1ccc(C[C@H](NC(=O)[C@H](Cc2ccc(O)cc2)N(C)C(=O)OC(C)(C)C)C(=O)OCc2ccccc2)cc1B1OC(C)(C)C(C)(C)O1` [Compound 1-8], the “inhibitory effects on cell growth” value (U87MG glioma cells) was “potent inhibitory effects”, the “inhibition of protein translation” value (rabbit reticulocytes) was “do not appear to inhibit protein translation” and the “inhibitory effects on cell growth” value (T98G glioma cells) was “potent inhibitory effects”.

With `COc1ccc(C[C@H](NC(=O)[C@H](Cc2ccc(O)cc2)N(C)C(=O)OC(C)(C)C)C(=O)OCc2ccccc2)cc1Br` [Compound 1-7] the “inhibitory effects on cell growth” value (U87MG glioma cells) was “potent inhibitory effects”, the “inhibition of protein translation” value (rabbit reticulocytes) was “do not appear to inhibit protein translation” and the “inhibitory effects on cell growth” value (T98G glioma cells) was “potent inhibitory effects”.

In the case of bouvardin, the IC50 [1] is reported as 124 nM, the “IC, for bouvardin” value [2] is reported as “decreases as human primary fibroblasts are transformed with more and more oncogenes” and the IC50 [3] is reported as 12 nM. For the same compound, the “IC50 in primary human cells versus transformed cells” value [4] was “higher IC50 (lower efficacy) in primary human cells than in transformed cells” and the LD50 (mice) was 12.4 mg/kg.

In the case of `COc1ccc(C[C@H]2C(=O)N[C@@H](C)C(=O)N(C)[C@H]3Cc4ccc(cc4)Oc4cc(c(Br)cc4OC)C[C@H](NC3=O)C(=O)N[C@H](C)C(=O)N[C@@H](C)C(=O)N2C)cc1` [meta Br-N-29-H RA-VII], the IC50 ([1]; Homo sapiens) is reported as 1170 nM, the “survival compared to untreated cells” value (HS294T melanoma cells [5]; 20 nM, alone) is reported as “greater than 90%” and the “predicted survival if the two treatments were additive” value (HS294T melanoma cells [5]; [12]) is reported as 50%. The “survival compared to untreated cells” value (HS294T melanoma cells [5]; [12]) was “less than 20%”, the “inhibition of protein translation” value (rabbit reticulocytes) was “dose-dependent response” and the “interaction with ionizing radiation (combination index; CI<1 indicates synergy)” value (HS294T melanoma cells [6]) was “shows synergy”. The “times less effective (greater IC50) than bouvardin” value (Melanoma cells; Melanoma cells) was 5 to 10 times, the “synergy with BRAF inhibitor Vemurafenib (PLX4032)” value (Melanoma cells; combination, PLX4032-sensitive and PLX4032-resistant lines) was “synergizes best and over a wide range of meta Br-N-29-H RA-VII doses” and the “interaction (average Combination Index) with PF-0491502 P13K/TOR dual inhibitor” value [7] was “displays synergy”. For the same compound, the “interaction (average Combination Index) with PLX4032 BRAF inhibitor” value [7] was “displays synergy”, the “interaction (average Combination Index) with TAK-333 MEK inhibitor” value [7] was “displays synergy” and the “response in cell growth assay” value (T98G glioma cells; T98G glioma cells (FIG. 12)) was “dose-dependent response”. The “exposure time to maximal response” value [8] was 4 days, the “response at 12 hr exposure” value [8] was “partial response” and the IC50 ([3]; Homo sapiens, A-375) was 100 nM. The “exposure time to maximal response” value [9] was 4 days, the “response at 12 hr exposure” value [9] was “no response” and the “exposure time to maximal response (same as 5 day)” value (“exposure time … (same as 5 day)” below) (A375 melanoma cells) was 2 to 3 days. The “response at 12 hr exposure” value (A375 melanoma cells) was “partial response”, the “exposure time … (same as 5 day)” value (HS294T melanoma cells [10]) was 3 to 4 days and the “response at 12 hr exposure” value (HS294T melanoma cells [10]) was “partial response”. The “interaction with PLX4032 (combination index; CI of less than 1 indicates synergy)” value [11] was “synergize”, the “exposure time … (same as 5 day)” value (1205Lu melanoma cells) was 4 days and the “response at 12 hr exposure” value (1205Lu melanoma cells) was “partial response”.

For `CCCS(=O)(=O)Nc1ccc(F)c(C(=O)c2c[nH]c3ncc(-c4ccc(Cl)cc4)cc23)c1F` [PLX4032, Vemurafenib, reference compound], the “survival compared to untreated cells” value (HS294T melanoma cells [5]; 500 nM, alone) was “around 60%”.
